{"source": "paper PMC3577726", "about": "(PLoS ONE, 2013)", "key": {"Male C57BL/6J mice [1]": {"test_system": "Male C57BL/6J mice", "assay": "Serum insulin concentration after intraperitoneal or oral treatment, with or without sitagliptin and exendin(9–39)", "format": "in vivo, mouse", "conditions": "for Serum insulin concentration, i.p. 7 µg/kg alone / Serum insulin concentration, oral 10 µg/kg: blood 20 min later; for Serum insulin concentration, i.p. 7 µg/kg alone: four to six mice; for Serum insulin concentration, oral 10 µg/kg: 10 µg/kg orally, with or without sitagliptin and exendin(9–39)", "description": "(§1) Male C57BL/6J mice (Jackson Laboratory, Bar Harbor, ME) were maintained in a specific pathogen-free facility under a 12 h-light, 12 h-dark cycle and were moved to a conventional facility for experiments at 6 to 8 weeks of age. All animal experiments were approved by the animal ethics committee of Kyushu University. Animals were anesthetized with sevoflurane and blood (maximally up to 100 µl) was collected from the orbital plexus of mice treated as indicated. Dipeptidyl peptidase (DPP)-IV inhibitor (Merck-Millipore, Billerica, MA) was added to the samples to a final concentration of 100 µM.\n(B, C) Mice deprived of food for 5 h (blood glucose level, 103.5 mg/dl) were administered sitagliptin (1 µg/kg) or saline orally and then 30 min later were treated with ucOC or GlaOC intraperitoneally (7 µg/kg) (B) or orally (10 µg/kg) (C) in combination with intraperitoneal injection of exendin(9–39) (25 nmol/kg) or saline. […] All data are means ± SEM for four to six mice. *P < 0.05, **P < 0.01, †P = 0.06 versus control (open bar) or for the indicated comparisons (Student's t test)."}, "STC-1 cells": {"test_system": "STC-1 cells", "assay": "GLP-1 secretion from STC-1 cells (ELISA of culture supernatant)", "format": "cell-based, mouse", "description": "STC-1 cells (kindly provided from Dr. G. Tsujimoto, Kyoto University), a mouse enteroendocrine cell line were cultured under a humidified atmosphere of 5% CO2 at 37 °C in Dulbecco's modified Eagle's medium supplemented with 15% horse serum, 5% fetal bovine serum, penicillin (100 U/ml), and streptomycin (0.1 mg/ml). The cells were routinely passaged at 80 to 90% confluence.\nSTC-1 cells in a six-well plate were washed three times and then incubated with recombinant mouse ucOC or with GlaOC (ANA Spec, Fremont, CA) in Hanks' balanced salt solution for 60 min at 37 °C. The culture supernatants were then assayed for GLP-1 with ELISA kit (Shibayagi, Gunma, Japan).\nFigure 2 OC-induced GLP-1 secretion in STC-1 cells. STC-1 cells were incubated for 60 min with vehicle (control) or the indicated concentrations of ucOC, GlaOC, or PMA. Data are expressed relative to the control value (33.1 pg per 1 × 10^5 cells) and are means ± SEM from four to eight independent experiments. *P < 0.05, **P < 0.01 versus control (Student's t test)."}, "Male C57BL/6J mice [2]": {"test_system": "Male C57BL/6J mice", "assay": "Serum GLP-1 concentration after oral administration of OC", "format": "in vivo, mouse", "conditions": "mice fasted 5 h, no sitagliptin pretreatment, blood 20 min later, five to seven mice", "description": "(§2) Figure 3 Effect of intraperitoneal or oral administration of OC on serum GLP-1 concentration. (A) Mice were deprived of food for 5 h and then injected intraperitoneally with saline (control) or the indicated doses of recombinant ucOC, of GlaOC. Blood was collected 20 min later for determination of the serum concentration of GLP-1. Part of mice was orally administered with sitagliptin (1 µg/kg) 30 min before injection of OC. (B) Mice deprived of food for 5 h were treated orally with saline (control) or the indicated doses of ucOC or GlaOC. Blood samples collected 20 min later were assayed for serum GLP-1 concentration. All data are means ± SEM for five to seven mice. *P < 0.05, **P < 0.01 versus control (Student's t test)."}, "Male C57BL/6J mice [3]": {"test_system": "Male C57BL/6J mice", "description": "as §1"}, "Male C57BL/6J mice [4]": {"test_system": "Male C57BL/6J mice", "assay": "Serum GLP-1 concentration after intraperitoneal administration of OC", "format": "in vivo, mouse", "description": "as §2"}, "[5]": {"conditions": "mouse, in vivo", "description": "Serum OC concentrations were measured with ELISA kit for mouse OC (Biomedical Technologies), which is formulated for both ucOC and GlaOC, with the two forms being discriminated with the use of hydroxyapatite. Serum (50 µl) was thus mixed with 10 mg of hydroxyapatite (Sigma-Aldrich) and rotated at 4 °C for 1 h, after which the hydroxyapatite (and bound GlaOC) was removed by centrifugation and the supernatant was assayed for ucOC.\nFigure 5 Serum levels of total OC and ucOC after intraperitoneal or oral administration of ucOC or GlaOC. Serum levels of total OC (A) or ucOC (B) were measured 20 min after administration of ucOC or GlaOC at a dose of 7 µg/kg intraperitoneally (i.p.) or 10 µg/kg orally (p.o.) in mice that had been deprived of food for 5 h; black circles indicate values for individual mice, with the horizontal bars representing the mean values. *P < 0.05 versus saline-treated animals [one-way ANOVA followed by either Dunnett's multiple-comparison test (A) or Tukey's HSD post hoc test (B)]."}, "[6]": {"assay": "Absorption of 125I-labeled ucOC into the systemic circulation (blood radioactivity)", "format": "in vivo, mouse", "conditions": "n = 5 each", "description": "An expression vector for a glutathione S-transferase-ucOC fusion protein was constructed by introduction of mouse OC cDNA into the vector pGEX-4T-1 (GE Healthcare, Buckinghamshire, UK). The fusion protein was produced in bacteria and purified with glutathione-Sepharose beads (GE Healthcare) according to standard procedures. The final washes of the beads were performed with a buffer containing 0.1% Triton X-114 (Sigma-Aldrich, St. Louis, MO) and then with the same buffer without detergent in order to remove endotoxin [17]. […] The purity of the ucOC preparation was assessed by sodium dodecyl sulfate-polyacrylamide gel electrophoresis with Tris-Tricine and staining with Coomassie blue, and the concentration and integrity of the protein were determined with an enzyme-linked immunosorbent assay (ELISA) kit for mouse OC (Biomedical Technologies, Stoughton, MA). […]\nFigure 6 Absorption of ^125I-labeled ucOC into the systemic circulation. Mice were administered ^125I-labeled ucOC (5 µg/kg, 4,000 to 6,000 cpm) intraperitoneally (circles, n = 5) or orally (squares, n = 5), and blood was collected into tubes containing 5 mM EDTA (to prevent coagulation) at 30 and 60 min thereafter for measurement of radioactivity. The percentage of the administered radioactivity present in the circulation was calculated assuming a total blood volume of 2 ml. […]"}, "[7]": {"conditions": "cited from earlier work"}}, "note": "No end group written: not given here."}
{"compound": "N[C@@H](CC(=O)N1CCn2c(nnc2C(F)(F)F)C1)Cc1cc(F)c(F)cc1F", "note": "[Sitagliptin, sitagliptin, reference compound]", "values": [{"measurement": "Serum insulin concentration, sitagliptin alone", "setting": "Male C57BL/6J mice [1]; mice fasted 5 h, sitagliptin 1 µg/kg orally", "result": "small increase in the serum insulin concentration"}]}
{"compound": "GlaOC: γ-carboxylated form of the bone-derived protein osteocalcin (ANA Spec) (YLGASVPSPDPLEPTREQCELNPACDELSDQYGLKTAYKRIYGITI; ends and bridges not checked; also: γ-carboxylated on three glutamic acid residues (places not given here); UniProt P86546 50-95, looked up)", "values": [{"measurement": "Effect on GLP-1 secretion at the concentrations examined", "setting": "STC-1 cells; 60 min", "result": "did not affect GLP-1 secretion"}, {"measurement": "Serum GLP-1 concentration after oral administration", "setting": "Male C57BL/6J mice [2]", "result": "a similar effect was apparent"}, {"measurement": "Serum GLP-1 level after tail vein injection of GlaOC", "setting": "Male C57BL/6J mice [3]; fasted mice, data not shown", "result": "no effect"}, {"measurement": "Serum insulin level after tail vein injection of GlaOC", "setting": "Male C57BL/6J mice [3]; fasted mice, data not shown", "result": "no effect"}, {"measurement": "Serum GLP-1 level, i.p., sitagliptin-pretreated mice", "setting": "Male C57BL/6J mice [4]; mice fasted 5 h, oral sitagliptin 1 µg/kg 30 min before, i.p., blood 20 min later", "result": "did not increase the serum GLP-1 level"}, {"measurement": "Serum insulin concentration, i.p. 7 µg/kg alone", "setting": "Male C57BL/6J mice [1]; mice fasted 5 h, 7 µg/kg i.p.", "result": "no effect on serum insulin"}, {"measurement": "Serum insulin concentration, oral 10 µg/kg", "setting": "Male C57BL/6J mice [1]; mice fasted 5 h", "result": "tended to increase serum insulin, although this effect did not achieve statistical significance"}]}
{"compound": "Osteocalcin (YLGASVPSPDPLEPTREQCELNPACDELSDQYGLKTAYKRIYGITI; ends and bridges not checked; cysteine pairing not given here; UniProt P86546 50-95, looked up) [osteocalcin, a peptide composed of 46 amino acids; form (uc- or Gla-) not specified at the place]", "values": [{"measurement": "Absorption rate at fivefold higher oral dose", "setting": "[5]", "result": 0.8, "unit": "%"}, {"measurement": "Absorption rate at twofold higher oral dose", "setting": "[5]", "result": 2, "unit": "%"}]}
{"compound": "^125I-labeled ucOC: ucOC iodinated with Na^125I as GST fusion, released with thrombin (YLGASVPSPDPLEPTREQCELNPACDELSDQYGLKTAYKRIYGITI; ends and bridges not checked; also: 125I label, site not given here; UniProt P86546 50-95, looked up)", "values": [{"measurement": "Gross absorption, % of the administered radioactivity in the circulation at 30 min", "setting": "[6]; 5 µg/kg (4,000 to 6,000 cpm) i.p. or orally, assuming total blood volume of 2 ml", "result": "2 to 8", "unit": "%"}, {"measurement": "Blood radioactivity at 60 min compared with 30 min", "setting": "[6]; 5 µg/kg i.p. or orally", "result": "increased further or decreased to a small extent"}]}
{"compound": "calcitonin", "values": [{"measurement": "Rate of absorption from the intestine into the bloodstream", "setting": "[7]", "result": "~5", "unit": "%"}]}
{"compound": "exendin(9–39) [reference compound]", "values": [{"measurement": "Antagonism of the exendin-4-induced increase in serum insulin", "setting": "Male C57BL/6J mice [1]; exendin(9–39) 25 nmol/kg i.p. 30 min before exendin-4 25 nmol/kg i.p.", "result": "sensitive to prior injection of exendin(9–39)"}, {"measurement": "Effect of exendin(9–39) on the sitagliptin-induced increase in serum insulin", "setting": "Male C57BL/6J mice [1]; sitagliptin orally, exendin(9–39) i.p., data not shown", "result": "blocked by administration of exendin(9–39)"}]}
{"compound": "uncarboxylated osteocalcin (YLGASVPSPDPLEPTREQCELNPACDELSDQYGLKTAYKRIYGITI; ends and bridges not checked; cysteine pairing not given here; UniProt P86546 50-95, looked up) [ucOC, recombinant mouse uncarboxylated osteocalcin, cleaved from a glutathione S-transferase fusion protein produced in bacteria]", "values": [{"measurement": "Effect on GLP-1 secretion at 30 ng/ml", "setting": "STC-1 cells; 60 min, 30 ng/ml", "result": "no longer apparent"}, {"measurement": "Effect on GLP-1 secretion at concentrations of >10 ng/ml", "setting": "STC-1 cells; >10 ng/ml", "result": "markedly diminished"}, {"measurement": "Serum GLP-1 concentration after oral administration", "setting": "Male C57BL/6J mice [2]", "result": "increased the serum concentration of GLP-1 in a dose-dependent manner"}, {"measurement": "Serum concentration of GLP-1 at 30 min after i.v. injection", "setting": "Male C57BL/6J mice [3]; 30 ng per animal, tail vein, mice fasted 5 h", "result": "further increased"}, {"measurement": "Serum concentration of insulin after i.v. injection", "setting": "Male C57BL/6J mice [3]; 30 ng per animal, tail vein, mice fasted 5 h, 15 and 30 min", "result": "increased as well"}, {"measurement": "Serum concentration of GLP-1 at 15 min after i.v. injection", "setting": "Male C57BL/6J mice [3]; 30 ng per animal, tail vein, mice fasted 5 h, four to six mice", "result": "significantly increased"}, {"measurement": "Serum insulin concentration after i.v. 300 ng", "setting": "Male C57BL/6J mice [3]; 300 ng per animal i.v., fasted mice, data not shown", "result": "no effect on the serum insulin concentration"}, {"measurement": "Blood concentration after i.v. 300 ng", "setting": "Male C57BL/6J mice [3]; mouse, in vivo, iv", "result": 28, "unit": "nM"}, {"measurement": "Expected initial serum concentration after i.v. 30 ng", "setting": "Male C57BL/6J mice [3]; mouse, in vivo, iv", "result": "~30", "unit": "ng/mL"}, {"measurement": "Initial concentration in blood after i.v. 30 ng", "setting": "Male C57BL/6J mice [3]; mouse, in vivo, iv", "result": 2.7, "unit": "nM"}, {"measurement": "Serum GLP-1 concentration, i.p., without sitagliptin", "setting": "Male C57BL/6J mice [4]; mice fasted 5 h, blood 20 min after i.p. injection, no DPP-IV inhibitor pretreatment, five to seven mice", "result": "increase in the serum concentration of GLP-1, but with only statistically insignificance"}, {"measurement": "Serum GLP-1 concentration, i.p. 7 µg/kg, sitagliptin-pretreated", "setting": "Male C57BL/6J mice [4]; mice fasted 5 h, oral sitagliptin 1 µg/kg 30 min before, 7 µg/kg i.p., blood 20 min later", "result": "significant increase"}, {"measurement": "Serum GLP-1 concentration, i.p. 10 µg/kg, sitagliptin-pretreated", "setting": "Male C57BL/6J mice [4]; mice fasted 5 h, oral sitagliptin 1 µg/kg 30 min before, 10 µg/kg i.p., blood 20 min later", "result": "no such effect"}, {"measurement": "Effect on GLP-1 secretion at intraperitoneal doses of >7 µg/kg", "setting": "Male C57BL/6J mice [4]; mice, i.p. >7 µg/kg", "result": "markedly diminished"}, {"measurement": "Serum insulin concentration, i.p. 7 µg/kg alone", "setting": "Male C57BL/6J mice [1]; mice fasted 5 h, 7 µg/kg i.p.", "result": "significant increase"}, {"measurement": "Serum insulin concentration, oral 10 µg/kg", "setting": "Male C57BL/6J mice [1]; mice fasted 5 h", "result": "Essentially identical results"}, {"measurement": "Serum insulin increase, i.p. 7 µg/kg with sitagliptin pretreatment", "setting": "Male C57BL/6J mice [1]; oral sitagliptin 1 µg/kg 30 min before 7 µg/kg i.p.", "result": "enhanced by sitagliptin"}, {"measurement": "Serum insulin increase, i.p. 7 µg/kg with sitagliptin and exendin(9–39)", "setting": "Male C57BL/6J mice [1]; oral sitagliptin 1 µg/kg, 7 µg/kg i.p., exendin(9–39) 25 nmol/kg i.p.", "result": "abolished by exendin(9–39)"}]}
